According to patent US20250000864A1, “GONADOTROPIN-RELEASING HORMONE ANTAGONIST, AND PREPARATION METHOD THEREFOR AND USE THEREOF” (SHANDONG LUYE PHARMACEUTICAL CO., LTD., priority 2021, published 2025):
Read-outs that look alike come from different tables or passages of the source.

What was measured:
[1] = Pharmacokinetics in SD rats (i.v. and i.g.); assay type: in vivo; details: for bioavailability: read-out: F (absolute bioavailability)
Protocol: Instrument: water purification equipment, Millipore; electronic balance, METTLER TOLEDO; high-speed benchtop centrifuge, Thermo; water bath thermostatic oscillator, Shanghai Yiheng Technical Co., Ltd.; vortex oscillator, Thermo; LC-MS/MS, AB SCIEX.
Method: all compounds were formulated in DMSO and 20% solutol. In the pharmacokinetic experiment, the administration dose for the intravenous group (i.v) was 1 mg/kg, and the administration dose for the intragastric group (i.g) was 12 mg/kg, each group containing 3 rats. Blood was collected from the orbit of the rats before (0 h) the administration and at set time points after administration. In the tissue distribution experiment, the rats were subjected to intragastric administration at a dose of 12 mg/kg. […] The […] in a heparinized EP tube and centrifuged at 13,500 rpm for 10 min to isolate the plasma. The pituitary was homogenized with water in a certain proportion. The plasma and pituitary homogenates were pre-treated and then analyzed by LC-MS/MS to determine the concentration of the test substances in the plasma and the pituitary. The plasma drug concentration data were processed in a non-compartmental model using WinNonlin™ Version 6.3 (Pharsight, Mountain View, CA) pharmacokinetic software.

[2] = Metabolic stability in rat liver microsomes; assay type: in vitro ADME, SD rat; details: for Residual content at 60 min / CLint scaled / half-life / microsomal CLint / CLint(liver): Rat liver microsomes; for Residual content at 60 min: NADPH, 37° C.; for CLint scaled / half-life / microsomal CLint: Sprague-Dawley (SD); for microsomal CLint: read-out: CLint(mic)
Protocol: (§1) Liver Microsome: Rat Liver Microsome and Human Liver Microsome Reagent: NADPH, Roche Diagnostics Gmbh; ACN, Merck Chemical; Tolbutamide, Sigma. Instrument: water purification equipment, Millipore; electronic balance, METTLER TOLEDO; high-speed benchtop centrifuge, Thermo; water bath thermostatic oscillator, Shanghai Yiheng Technical Co., Ltd.; vortex oscillator, Thermo; LC-MS/MS, AB SCIEX. Method: the metabolic stability of test substances was evaluated by using SD rat and human liver microsomes. The test substances were incubated with liver microsomes from different species by using NADPH under a water bath at 37° C. A cold acetonitrile solution containing a Tolbutamide internal standard substance was added at a specified time point to terminate the reaction. The samples were pre-treated and then subjected to semi-quantitative analysis by LC-MS/MS. The retention times of the analytes and Tolbutamide internal standard, the acquisition of chromatograms, and the integration of chromatograms were processed using software Analyst (A Sciex, Framingham, Massachusetts, USA). The in vitro elimination rate constant Ke of the samples was obtained by converting the ratio of the peak area of the samples to the peak area of the internal standard into the residual percentage, and the in vitro clearance rate and the half-life of the test samples were calculated.

[3] = Caco-2 two-way permeability and efflux; assay type: in vitro ADME; details: human; for Papp A→B at 120 min / Papp B→A at 120 min: Caco-2, 120 min incubation
Protocol: Instrument: water purification equipment, ELGA LabWate; biosafety cabinet, NUAIRE; thermostatic CO2 incubator, Thermo; microplate reader, PerkinElmer; LC-MS/MS, AB SCIEX.
Method: A Caco-2 monolayer cell model was used to determine the two-way permeability of the test substances and evaluate whether the test substances were transported by the efflux of a transporter. In the experiment, Caco-2 cells were seeded into a 96-well cell culture plate and cultured for 28 consecutive days for transport assay. The test substances were each administered on two sides. After being incubated for 120 min, the samples at the apical end A, at the basal end B, and with cell lysis were collected and quantitatively determined for the content of the test substances by using a liquid chromatography-tandem mass spectrometry (LC/MS/MS) method. The apparent permeability coefficient (Papp) in the direction from the apical end to the basal end (A-B) and in the direction from the basal end to the apical end (B-A) and the efflux ratio were calculated from the concentrations of the test substances.

[4] = Metabolic stability in human liver microsomes; assay type: in vitro ADME; details: for Residual content at 60 min: NADPH, 37° C.; for microsomal CLint: read-out: CLint(mic)
Protocol: as §1

[5] = molecular target: human hERG potassium channel (Homo sapiens (Human), UniProt Q12809); test: hERG test (QPatch automated patch clamp, CHO cells); assay type: cell-based
Chain of human hERG potassium channel (Q12809 whole entry): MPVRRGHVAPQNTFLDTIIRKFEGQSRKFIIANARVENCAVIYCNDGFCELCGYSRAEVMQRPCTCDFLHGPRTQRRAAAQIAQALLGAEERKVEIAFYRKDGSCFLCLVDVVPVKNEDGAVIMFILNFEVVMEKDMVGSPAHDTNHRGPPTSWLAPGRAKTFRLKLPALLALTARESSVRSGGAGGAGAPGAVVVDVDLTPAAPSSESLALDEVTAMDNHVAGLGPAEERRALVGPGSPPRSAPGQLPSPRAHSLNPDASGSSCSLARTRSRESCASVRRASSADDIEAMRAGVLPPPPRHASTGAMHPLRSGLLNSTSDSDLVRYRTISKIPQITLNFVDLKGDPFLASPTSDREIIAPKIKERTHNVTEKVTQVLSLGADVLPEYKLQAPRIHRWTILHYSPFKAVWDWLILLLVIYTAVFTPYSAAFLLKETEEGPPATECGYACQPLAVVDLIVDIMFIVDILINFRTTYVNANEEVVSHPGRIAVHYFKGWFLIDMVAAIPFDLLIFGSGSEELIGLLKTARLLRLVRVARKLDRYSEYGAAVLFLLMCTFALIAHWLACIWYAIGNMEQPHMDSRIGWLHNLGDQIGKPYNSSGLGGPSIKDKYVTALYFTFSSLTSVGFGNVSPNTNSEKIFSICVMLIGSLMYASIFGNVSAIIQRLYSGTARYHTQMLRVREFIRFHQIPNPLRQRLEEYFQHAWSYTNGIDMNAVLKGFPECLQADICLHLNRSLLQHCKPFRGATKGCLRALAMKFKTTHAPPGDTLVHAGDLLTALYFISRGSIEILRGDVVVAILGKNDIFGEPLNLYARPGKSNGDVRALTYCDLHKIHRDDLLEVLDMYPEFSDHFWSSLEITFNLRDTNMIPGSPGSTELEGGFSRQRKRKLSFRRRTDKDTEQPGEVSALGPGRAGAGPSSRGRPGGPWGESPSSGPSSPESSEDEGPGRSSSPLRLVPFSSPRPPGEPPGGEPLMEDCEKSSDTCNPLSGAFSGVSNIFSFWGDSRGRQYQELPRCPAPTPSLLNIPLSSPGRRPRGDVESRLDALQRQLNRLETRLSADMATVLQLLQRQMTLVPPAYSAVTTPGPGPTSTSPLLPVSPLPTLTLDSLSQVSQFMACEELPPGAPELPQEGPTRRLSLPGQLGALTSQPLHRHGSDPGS
Protocol: Cell: CHO cells stably expressing a human hERG potassium channel (WuXi AppTec (Shanghai) Co., Ltd.) Reagent: physiological solution (pH=7.4): 140 mM NaCl, 4 mM KCl, 2 mM CaCl2), 1 mM MgCl2, 5 mM Glucose, 10 mM HEPES, Osmolarity: about 298 mOsm; external solution (pH=7.4): 80 mM NaCl, 4 mM KCl, 2 mM CaCl2), 1 mM MgCl2, 5 mM Glucose, 60 mM NMDG, 10 mM HEPES, Osmolarity: about 289 mOsm; internal solution (pH=7.4): 10 mM NaCl, 10 mM KCl, 110 mM KF, 10 mM HEPES, EGTA: […], Osmolarity: about 280 mOsm.
Equipment: QPatch high-throughput automated patch clamp system, Sophion.
Method: CHO cells stably expressing a human hERG potassium channel were digested with TrypLE and resuspended in a physiological solution for later use. The single-cell high-impedance sealing and whole-cell mode formation processes were automatically completed by Qpatch. The clamping voltage for the cells was −80 mV. Then a voltage of −50 mV was applied for 80 ms to subtract (current) leakage, and a voltage of +20 mV was applied for 4800 ms to open the hERG channel. The voltage was then reduced to −50 mV and maintained for 5000 ms. This process was used for data collection and analysis. Finally, the voltage was returned to the clamping voltage (−80 mV, 1000 ms). This process was repeated every 20,000 ms. 40 μL of solvent control (external solution+DMSO) was added first, and the test was performed for […] to collect baseline data. Then, 40 μL of each of the test compounds was added at various concentrations, and the test was performed for no less than […]. The compounds were each dissolved in DMSO, with test concentrations being 0.30 μM, 1.00 μM, 3.00 μM, 10.00 μM, and 30.00 μM. The IC50 data for the hERG test were obtained by analyzing using DataControl, Excel2013, and Prism.

human GnRHR = human GnRHR (Homo sapiens (Human), UniProt P30968); test: In vitro antagonistic activity screening (FLIPR calcium fluorescence, Leuprolide acetate stimulation); assay type: cell-based; details: HEK293 cells stably expressing human GnRHR
Chain of human GnRHR (P30968 whole entry): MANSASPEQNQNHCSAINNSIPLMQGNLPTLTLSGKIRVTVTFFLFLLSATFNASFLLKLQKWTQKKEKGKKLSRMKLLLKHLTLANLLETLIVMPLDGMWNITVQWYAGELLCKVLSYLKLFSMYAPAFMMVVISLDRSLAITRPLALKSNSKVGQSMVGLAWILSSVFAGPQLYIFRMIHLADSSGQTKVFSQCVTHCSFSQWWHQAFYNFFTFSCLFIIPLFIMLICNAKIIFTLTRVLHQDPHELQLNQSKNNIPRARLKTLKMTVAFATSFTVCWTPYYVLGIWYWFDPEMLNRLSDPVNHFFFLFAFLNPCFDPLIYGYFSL
Protocol: Cell: HEK293 cells stably expressing human GnRHR (WuXi AppTec (Shanghai) Co., Ltd.) Equipment: 384-well plate, Greiner; Vi-cell XR Cell Viability Analyzer, Beckman Coulter; incubator, Thermo.
Method: HEK293 cells stably expressing human GnRHR were seeded into a 384-well plate at a density of 20,000/well. Fluo-4 Direct™ No-wash Loading Buffer (Invitrogen) was added to each well the next day, and then the plate was put back into an incubator, incubated at 37° C. for 50 min, and then incubated at room temperature for 10 min. Test compounds were formulated in DMSO. […] Fluorescence values were determined using a FLIPR Tetra high throughput real-time fluorescence detection and assay system. Then 10 μL of Leuprolide acetate was added, and fluorescence values were determined. IC50 and IC90 of the compounds were calculated using Prism.

[6] = male, rat, plasma, intravenous, i.v 1 mg/kg
[7] = male, rat, plasma, oral, i.g 12 mg/kg
[8] = male, Sprague-Dawley (SD), rat, plasma, iv, i.v 1 mg/kg
[9] = male, Sprague-Dawley (SD), rat, plasma, po, i.g 12 mg/kg
[10] = male, Sprague-Dawley (SD), rat, plasma, po, i.g 12 mg/kg vs i.v 1 mg/kg

Row | Structure (SMILES) | Residual content at 60 min [2] | CLint scaled [2] | half-life [2] | microsomal CLint [2] | Papp A→B at 120 min [3] | Papp B→A at 120 min [3] | CLint scaled [4] | half-life [4] | Residual content at 60 min [4] | microsomal CLint [4] | also measured
1 | CONC(=O)Nc1ccc(-c2sc3c(c2CN(C)CCOC(F)(F)F)c(=O)n(-c2ccc(OC)nn2)c(=O)n3Cc2c(F)cccc2F)cc1 [Compound 1] | – | – | – | – | – | – | – | – | – | – | T1/2 ([1]; i.g 12 mg/kg): 4.86 ± 3.05 h; Tmax ([1]; i.g 12 mg/kg): 1.13 ± 0.63 h; F (absolute bioavailability) ([1]; i.g 12 mg/kg vs i.v 1 mg/kg): 44.7%; T1/2 ([1]; i.v 1 mg/kg): 2.79 ± 0.87 h; AUC(0-t) [1, 6]: 992 ± 226 ng·h/mL; C0 [1, 6]: 2830 ± 454 ng/mL; MRT last [1, 6]: 0.539 ± 0.041 h; AUC(0-t) [1, 7]: 5320 ± 1210 ng·h/mL; Cmax [1, 7]: 664 ± 123 ng/mL; MRT last [1, 7]: 6.02 ± 0.93 h
2 | CONC(=O)Nc1ccc(-c2sc3c(c2CN(C)C)c(=O)n(-c2cccc(OC(F)F)c2F)c(=O)n3Cc2c(F)cccc2F)cc1 [Compound 3] | 34.5% | 62.6 mL/min/kg | 0.663 h | 34.8 µL/min/mg | 0.126 ×10⁻⁶ cm/s | 18 ×10⁻⁶ cm/s | 17.5 mL/min/kg | 1.19 h | 55.5% | 19.4 µL/min/mg | AUC(0-t) [1, 8]: 271 ± 49 ng·h/mL; C0 [1, 8]: 198 ± 4 ng/mL; MRT last [1, 8]: 3.83 ± 0.63 h; half-life [1, 8]: 4.34 ± 1 h; AUC(0-t) [1, 9]: 596 ± 231 ng·h/mL; Cmax [1, 9]: 82.7 ± 10.1 ng/mL; MRT last [1, 9]: 7.3 ± 1.13 h; half-life [1, 9]: 4.11 h; bioavailability [1, 10]: 18.3%; Tmax ([1]; male, Sprague-Dawley (SD), rat, plasma, po, i.g 12 mg/kg, read-out: Tmax): 6 ± 2.83 h
3 | CONC(=O)Nc1ccc(-c2oc3c(c2CN(C)C)c(=O)n(-c2ccc(OC)nn2)c(=O)n3Cc2c(F)cccc2F)cc1 [Compound 4] | 89.9% | < 13.5 mL/min/kg | > 3.1 h | < 7.5 µL/min/mg | 0.0933 ×10⁻⁶ cm/s | 29.4 ×10⁻⁶ cm/s | < 6.75 mL/min/kg | > 3.1 h | 104% | < 7.5 µL/min/mg | Clearance in the SD rat liver microsome (in words) ([2]; SD rat liver microsome): low clearance; efflux ratio at 120 min ([3]; Caco-2, read-out: Efflux ratio): 316; IC50 ([5]; CHO cells stably expressing human hERG potassium channel): 4440 nM; Inhibitory activity on the human hERG potassium channel compared with Relugolix ([5]; in words, vs Relugolix): equal to or less than that of Relugolix; IC50 (human GnRHR; read-out: Functional IC50): 12 nM; IC90 (human GnRHR; read-out: Functional IC90): 92.3 nM
4 | CONC(=O)Nc1ccc(-c2sc3c(c2CN(C)C)c(=O)n(-c2ccc(OC)nn2)c(=O)n3Cc2c(F)cccc2C(F)(F)F)cc1 [Compound 5] | 98.7% | < 13.5 mL/min/kg | > 3.1 h | < 7.5 µL/min/mg | 0.011 ×10⁻⁶ cm/s | 4.58 ×10⁻⁶ cm/s | < 6.75 mL/min/kg | > 3.1 h | 89.0% | < 7.5 µL/min/mg | –
5 | CNc1ccc(-n2c(=O)c3c(CN(C)C)c(-c4ccc(NC(=O)NOC)cc4)sc3n(Cc3c(F)cccc3F)c2=O)nn1 [Compound 6] | 57.1% | 34.9 mL/min/kg | 1.19 h | 19.4 µL/min/mg | 0.0504 ×10⁻⁶ cm/s | 0.504 ×10⁻⁶ cm/s | < 6.75 mL/min/kg | > 3.1 h | 95.9% | < 7.5 µL/min/mg | –
6 | COc1ccc(-n2c(=O)c3c(CN(C)C)c(-c4ccc(NC(=O)NOCC(F)F)cc4)sc3n(Cc3c(F)cccc3F)c2=O)nn1 [Compound 7] | 47.0% | – | 0.917 h | 25.2 µL/min/mg | 0.0101 ×10⁻⁶ cm/s | 15.6 ×10⁻⁶ cm/s | – | 2.82 h | 75.5% | 8.2 µL/min/mg | CLint(liver) [2]: 45.4 mL/min/kg; CLint(liver) [4]: 7.38 mL/min/kg
7 | CONC(=O)Nc1ccc(-c2sc3c(c2CN(C)C)c(=O)n(-c2ccc(OC)nn2)c(=O)n3Cc2c(F)cccc2F)cc1 [Relugolix, reference compound] | 58.0% | – | 1.41 h | 16.4 µL/min/mg | 0.00716 ×10⁻⁶ cm/s | 13.8 ×10⁻⁶ cm/s | – | 3.98 h | 86.4% | 5.8 µL/min/mg | CLint(liver) [2]: 29.5 mL/min/kg; CLint(liver) [4]: 5.22 mL/min/kg; T1/2 ([1]; i.g 12 mg/kg): 3.88 ± 0.57 h; bioavailability [1, 10]: 5.74%
